Laboratory results taken from paper PMC8765048 (JCI Insight, 2022).

How the values were obtained:
Assay in all cases: microbe, parasite or virus in culture
Format in all cases: cell-based
[1] = tested on: SARS-CoV-2 variants; conditions: Severe acute respiratory syndrome coronavirus 2, Vero C1008
[2] = tested on: SARS-CoV-2 variants; conditions: Severe acute respiratory syndrome coronavirus 2, Calu-3
[3] = tested on: SARS-CoV-2; conditions: Severe acute respiratory syndrome coronavirus 2; read-out: IC50 values against all viral variants and in all examined cell types

## NC(=O)c1cn([C@@H]2O[C@H](CO)[C@@H](O)[C@H]2O)c2ncnc(N)c12 [Sangivamycin, sangivamycin]
[1]
  IC50: 42 ± 8.8 nM
  IC90: 220 ± 42.1 nM
[2]
  IC50: 64.3 ± 4.7 nM
  IC90: 255 ± 46.1 nM
[3]
  IC50: 14 to 82 nM

## CCC(CC)COC(=O)[C@H](C)N[P@](=O)(OC[C@H]1O[C@@](C#N)(c2ccc3c(N)ncnn23)[C@H](O)[C@@H]1O)Oc1ccccc1 [Remdesivir, remdesivir, reference compound]
[1]
  IC50: 2100 ± 516 nM
  IC90: 4450 ± 829 nM
[2]
  IC50: 2290 ± 449 nM
  IC90: 7200 ± 1000 nM
